Blank lines part the entries; values can stand above or below the compound they belong to.
Assays:
[1] = biological target: T1, Vasopressin V1a receptor (Homo sapiens, UniProt P37288); assay: Displacement of DY647 from SNAP-tagged V1A receptor (unknown origin) expressed in HEK293 cells by TR-FRET assay; assay type: cell-based
Target sequence in this assay (P37288 whole entry): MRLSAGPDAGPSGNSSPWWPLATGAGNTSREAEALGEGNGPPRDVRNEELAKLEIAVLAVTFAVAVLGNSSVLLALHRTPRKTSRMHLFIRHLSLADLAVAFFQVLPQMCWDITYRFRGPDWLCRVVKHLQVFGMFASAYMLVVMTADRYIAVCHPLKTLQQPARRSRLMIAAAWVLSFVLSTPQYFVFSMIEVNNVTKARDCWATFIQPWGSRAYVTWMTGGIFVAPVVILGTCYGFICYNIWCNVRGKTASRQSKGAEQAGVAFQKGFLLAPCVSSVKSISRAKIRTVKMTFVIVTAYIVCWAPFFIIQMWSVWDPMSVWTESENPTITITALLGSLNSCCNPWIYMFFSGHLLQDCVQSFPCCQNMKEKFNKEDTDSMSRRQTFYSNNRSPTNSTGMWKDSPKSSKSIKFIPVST

[2] = biological target: T1, Vasopressin V1a receptor; assay: Agonist activity at human V1A receptor expressed in HEK cells assessed as increase in intracellular calcium flux at 1 uM incubated for 45 mins by Indo1-AM dye based fluorescence assay relative to AVP; assay type: functional, cell-based
Target sequence in this assay (P37288 whole entry, looked up): as the sequence (P37288 whole entry) above

[3] = biological target: T1, Vasopressin V1a receptor; assay: Antagonist activity at human V1A receptor expressed in HEK cells assessed as inhibition of AVP-induced intracellular calcium flux incubated for 45 mins by Indo1-AM dye based fluorescence assay relative to AVP; assay type: functional, cell-based
Target sequence in this assay (P37288 whole entry): as above

[4] = biological target: T2, Vasopressin V2 receptor (Homo sapiens, UniProt P30518); assay: Displacement of DY647 from SNAP-tagged V2 receptor (unknown origin) expressed in HEK293 cells by TR-FRET assay; assay type: cell-based
T2 sequence (P30518 whole entry): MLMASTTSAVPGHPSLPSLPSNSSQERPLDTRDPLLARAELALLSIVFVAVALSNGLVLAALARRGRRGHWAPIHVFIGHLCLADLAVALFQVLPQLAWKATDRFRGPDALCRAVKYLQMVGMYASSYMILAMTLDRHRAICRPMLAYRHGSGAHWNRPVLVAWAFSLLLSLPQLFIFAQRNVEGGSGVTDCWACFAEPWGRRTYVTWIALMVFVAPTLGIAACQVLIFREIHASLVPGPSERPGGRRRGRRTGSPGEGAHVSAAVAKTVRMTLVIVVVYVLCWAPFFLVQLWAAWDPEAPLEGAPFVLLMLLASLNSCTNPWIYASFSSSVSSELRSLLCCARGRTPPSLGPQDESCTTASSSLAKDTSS

[5] = biological target: T3, Oxytocin receptor (Homo sapiens, UniProt P30559); assay: Displacement of DY647 from SNAP-tagged OTR receptor (unknown origin) expressed in HEK293 cells by TR-FRET assay; assay type: cell-based
T3 sequence (P30559 whole entry): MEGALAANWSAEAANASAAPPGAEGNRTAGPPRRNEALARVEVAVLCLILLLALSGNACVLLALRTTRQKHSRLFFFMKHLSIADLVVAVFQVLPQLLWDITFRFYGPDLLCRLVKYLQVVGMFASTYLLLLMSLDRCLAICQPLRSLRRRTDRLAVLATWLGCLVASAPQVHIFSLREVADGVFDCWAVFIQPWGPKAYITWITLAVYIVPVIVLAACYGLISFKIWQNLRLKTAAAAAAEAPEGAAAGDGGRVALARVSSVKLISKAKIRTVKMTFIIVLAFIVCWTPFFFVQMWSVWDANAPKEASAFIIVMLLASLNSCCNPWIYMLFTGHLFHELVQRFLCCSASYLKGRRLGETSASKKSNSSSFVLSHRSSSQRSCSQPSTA

[6] = biological target: T4, Oxytocin receptor (Homo sapiens) (UniProt P30559); assay: Agonist activity at human OTR expressed in HEK cells assessed as increase in intracellular calcium flux at 1 uM incubated for 45 mins by Indo1-AM dye based fluorescence assay relative to OT; assay type: functional, cell-based
T4 sequence (whole entry): T3 sequence (P30559 whole entry)

[7] = biological target: T3, Oxytocin receptor; assay: Antagonist activity at human OTR expressed in HEK cells assessed as inhibition of OT-induced intracellular calcium flux incubated for 45 mins by Indo1-AM dye based fluorescence assay; assay type: functional, cell-based
[8] = biological target: T1, Vasopressin V1a receptor; assay: Displacement of [3H]-AVP from human V1A receptor expressed in CHO cell membranes
Target sequence in this assay (P37288 whole entry): as the sequence (P37288 whole entry) above

[9] = biological target: T5, Vasopressin V1b receptor (Homo sapiens, UniProt P47901); assay: Displacement of [3H]-AVP from human V1B receptor expressed in CHO cell membranes
T5 sequence (P47901 whole entry): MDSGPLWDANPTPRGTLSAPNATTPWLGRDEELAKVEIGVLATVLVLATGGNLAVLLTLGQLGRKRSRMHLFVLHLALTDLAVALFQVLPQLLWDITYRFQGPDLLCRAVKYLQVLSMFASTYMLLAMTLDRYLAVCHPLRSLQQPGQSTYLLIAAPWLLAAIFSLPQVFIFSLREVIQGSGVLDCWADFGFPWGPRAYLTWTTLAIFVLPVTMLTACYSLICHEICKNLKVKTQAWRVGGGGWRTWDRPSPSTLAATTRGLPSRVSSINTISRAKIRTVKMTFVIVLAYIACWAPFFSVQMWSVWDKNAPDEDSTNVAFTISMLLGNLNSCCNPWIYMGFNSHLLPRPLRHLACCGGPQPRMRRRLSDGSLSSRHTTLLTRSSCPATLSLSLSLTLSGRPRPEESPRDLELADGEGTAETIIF

[10] = biological target: T2, Vasopressin V2 receptor; assay: Displacement of [3H]-AVP from human V2 receptor expressed in CHO cell membranes
[11] = biological target: T3, Oxytocin receptor; assay: Displacement of [3H]-oxytocin from OTR receptor in human USMC cell membranes
[12] = biological target: T3, Oxytocin receptor; assay: Agonist activity at human OTR expressed in HEK cells assessed as increase in intracellular calcium flux incubated for 45 mins by Indo1-AM dye based fluorescence assay; assay type: functional, cell-based
[13] = biological target: T4, Oxytocin receptor (Homo sapiens); assay: Agonist activity at human OTR expressed in HEK cells assessed as increase in intracellular calcium flux incubated for 45 mins by Indo1-AM dye based fluorescence assay relative to OT; assay type: functional, cell-based
[14] = biological target: T4, Oxytocin receptor (Homo sapiens); assay: Antagonist activity at human OTR expressed in HEK cells assessed as inhibition of OT-induced intracellular calcium flux at 1 uM incubated for 45 mins by Indo1-AM dye based fluorescence assay relative to OT; assay type: functional, cell-based
[15] = biological target: T4, Oxytocin receptor (Homo sapiens); assay: Agonist activity at human OTR receptor expressed in CHO cells co-expressing NFAT-luciferase incubated for 5 hrs by luciferase reporter gene assay relative to OT; assay type: functional, cell-based
[16] = biological target: T1, Vasopressin V1a receptor; assay: Displacement of [3H]-AVP from human V1A receptor expressed in human HeLa cell membranes incubated for 2 hrs by scintillation counting method
Target sequence in this assay (P37288 whole entry): as the sequence (P37288 whole entry) above

[17] = biological target: T5, Vasopressin V1b receptor; assay: Displacement of [3H]-AVP from human V1B receptor expressed in human HeLa cell membranes incubated for 2 hrs by scintillation counting method
[18] = biological target: T2, Vasopressin V2 receptor; assay: Displacement of [3H]-AVP from human V2 receptor expressed in human HeLa cell membranes incubated for 2 hrs by scintillation counting method
[19] = biological target: T2, Vasopressin V2 receptor; assay: Agonist activity at human V2 receptor expressed in human HeLa cells assessed as stimulation of cAMP accumulation by radioimmunoassay; assay type: functional, cell-based
[20] = biological target: T4, Oxytocin receptor (Homo sapiens); assay: Agonist activity at human OTR receptor expressed in HEK293FT cells assessed as stimulation of calcium release by Aequorin based assay relative to OT; assay type: functional, cell-based
[21] = biological target: T6, Oxytocin receptor (Mus musculus) (UniProt P97926); assay: Agonist activity at mouse OTR receptor expressed in HEK293FT cells assessed as stimulation of calcium release by Aequorin based assay relative to OT; assay type: functional, cell-based
T6 sequence (whole entry): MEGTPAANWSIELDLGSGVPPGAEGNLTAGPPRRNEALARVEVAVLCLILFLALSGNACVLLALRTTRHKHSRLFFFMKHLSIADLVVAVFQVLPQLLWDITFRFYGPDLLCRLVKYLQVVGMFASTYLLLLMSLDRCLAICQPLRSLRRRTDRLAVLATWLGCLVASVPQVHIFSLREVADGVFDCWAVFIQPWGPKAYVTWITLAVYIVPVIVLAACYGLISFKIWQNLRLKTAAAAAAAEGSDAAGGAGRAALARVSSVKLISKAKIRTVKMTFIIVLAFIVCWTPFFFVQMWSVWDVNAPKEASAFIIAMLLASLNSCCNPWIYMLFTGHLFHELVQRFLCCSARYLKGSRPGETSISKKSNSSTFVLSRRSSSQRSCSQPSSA

[22] = biological target: T4, Oxytocin receptor (Homo sapiens); assay: Agonist activity at human OTR receptor expressed in HEK293FT cells incubated for 30 mins by beta-arrestin recruitment assay relative to OT; assay type: functional, cell-based
[23] = biological target: T1, Vasopressin V1a receptor
Target sequence in this assay (P37288 whole entry): as the sequence (P37288 whole entry) above
Description: Agonist activity at human V1a receptor expressed in HEK293FT cells incubated for 30 mins by beta-arrestin recruitment assay

[24] = biological target: T1, Vasopressin V1a receptor; assay: Displacement of [3H]-AVP from human V1A receptor expressed in CHO cell membranes by radioligand binding assay
Target sequence in this assay (P37288 whole entry): as the sequence (P37288 whole entry) above

[25] = biological target: T2, Vasopressin V2 receptor; assay: Displacement of [3H]-AVP from human V2 receptor expressed in CHO cell membranes by radioligand binding assay
[26] = biological target: T3, Oxytocin receptor; assay: Displacement of [3H]-AVP from human OXR receptor expressed in CHO cell membranes by radioligand binding assay
[27] = biological target: T2, Vasopressin V2 receptor; assay: Antagonist activity at human V2 receptor expressed in CHO cells assessed as inhibition of AVP-induced cAMP accumulation by cAMP dynamic 2 assay; assay type: functional, cell-based
[28] = biological target: T1, Vasopressin V1a receptor; assay: Antagonist activity at human V1A receptor expressed in CHO cells assessed as inhibition of AVP-induced myo-inositol 1-phosphate accumulation at 1 uM by IP-One assay relative to AVP; assay type: functional, cell-based
Target sequence in this assay (P37288 whole entry, looked up): as the sequence (P37288 whole entry) above

[29] = biological target: T4, Oxytocin receptor (Homo sapiens); assay: Antagonist activity at human OTR receptor expressed in CHO cells assessed as inhibition of OT-induced myo-inositol 1-phosphate accumulation at 1 uM by IP-One assay relative to OT; assay type: functional, cell-based
[30] = biological target: T1, Vasopressin V1a receptor; assay: Agonist activity at human V1A receptor expressed in CHO cells assessed as increase in myo-inositol 1-phosphate accumulation at 1 uM by IP-One assay relative to AVP; assay type: functional, cell-based
Target sequence in this assay (P37288 whole entry, looked up): as the sequence (P37288 whole entry) above

[31] = organism: Homo sapiens; assay: Selectivity for human V1a receptor over human V2 receptor
[32] = organism: Homo sapiens; assay: Selectivity for human OTR receptor over human V2 receptor
[33] = biological target: T1, Vasopressin V1a receptor; assay: Antagonist activity at V1A receptor (unknown origin); assay type: functional
[34] = biological target: T2, Vasopressin V2 receptor; assay: Antagonist activity at V2 receptor (unknown origin); assay type: functional
[35] = biological target: T3, Oxytocin receptor; assay: Antagonist activity at OXR receptor (unknown origin); assay type: functional
[36] = biological target: T4, Oxytocin receptor (Homo sapiens); assay: Agonist activity at human OTR receptor expressed in CHO cells assessed as increase in myo-inositol 1-phosphate accumulation at 1 uM by IP-One assay relative to OT; assay type: functional, cell-based

Structure (SMILES): COC(=O)CNC(=O)NCc1ccc(C(=O)N2Cc3cnn(C)c3Nc3ccccc32)cc1C
- Ki [1]: > 1000 nM
- Emax [2]: 5 to 10%
- IC50 [3]: 110 nM
- Ki [4]: > 1000 nM
- Ki [5]: 385 nM
- Emax [6]: 5 to 10%
- IC50 [7]: > 1000 nM

Structure (SMILES): Cc1cc(C(=O)N2Cc3cnn(C)c3Nc3ccccc32)ccc1CNC(=O)N1CCC[C@H]1C(=S)N1CCCN(C)CC1
- Ki [1]: 196 nM
- Emax [2]: 5 to 10%
- IC50 [3]: 8 nM
- Ki [5]: 141 nM
- EC50 [12]: 28 nM
- Emax [13]: 84%
- inhibition [14]: 5 to 10%
- Emax [15]: 100%

Structure (SMILES): Cc1cc(C(=O)N2Cc3cnn(C)c3Nc3ccccc32)ccc1CNC(=O)N1CCC[C@H]1C(=O)N(C)C
- Ki [1]: > 1000 nM
- Emax [2]: 5 to 10%
- IC50 [3]: 95 nM
- Ki [4]: > 1000 nM
- Ki [5]: > 1000 nM
- EC50 [12]: 300 nM
- Emax [13]: 34%
- inhibition [14]: 5 to 10%

Structure (SMILES): CC(C)NC(=O)C[C@H]1CCCN(C(=O)c2ccc(N3CCCC3)cc2Cl)c2ccccc21
- Ki [16]: 819 nM
- IC50 [17]: > 100000 nM
- Ki [18]: 91.9 nM
- EC50 [19]: 189 nM

Structure (SMILES): Cc1ccn(-c2ccc(C(=O)N3CCCC(N(C)C)c4ccccc43)c(Cl)c2)n1 (centres undefined)
- Ki [24]: < 10 nM
- Ki [25]: 331 nM
- Ki [26]: > 1000 nM
- Kinact [27]: 126 nM
- inhibition [28]: < 10%
- inhibition [29]: < 10%
- Emax [30]: < 10%
- Selectivity ratio [31]: > 30
- Selectivity ratio [32]: > 3

The next lines start with the values.

- Ki [8]: 0.3 nM
- Ki [9]: 25500 nM
- Ki [10]: 381 nM
- Ki [11]: 71 nM
Structure (SMILES): Cc1occc1C(=O)Nc1ccc(C(=O)N2CCC(F)(F)/C(=C\C(=O)N3CCC(N4CCCCC4)CC3)c3ccccc32)cc1

- Emax [20]: 100%
- Emax [21]: 100%
- Emax [22]: 100%
- IC50 [23]: Not Active
Structure (SMILES): CC[C@H](C)[C@@H]1NC(=O)[C@H](Cc2ccc(O)cc2)NC(=O)[C@@H](N)CSSC[C@@H](C(=O)N2CCC[C@H]2C(=O)N[C@@H](CC(C)C)C(=O)NCC(N)=O)NC(=O)[C@H](CC(N)=O)NC(=O)[C@H](CCC(N)=O)NC1=O [OXYTOCIN]

- IC50 [33]: 2.74 nM
- IC50 [34]: 0.57 nM
- IC50 [35]: 109 nM
- Emax [36]: < 10%
- Emax [30]: < 10%
Structure (SMILES): O=C(Nc1ccc(C(=O)N2CCCCc3ccccc32)cc1)c1ccccc1-c1ccccc1
